Measurements as given in patent publication EP4782453A1 (Beyang Therapeutics Co., Ltd., priority 2023, dated 2025).
Where two headings read alike, the source gives them in different places.

How the values were obtained:
[1] = test system: MV-4-11 (carrying MLL-AF4); test: Inhibition of proliferation of human tumor cells (Alamar Blue, 7 days), MV-4-11; format: cell-based; details: Homo sapiens, MV4-11, 168 h, MV-4-11 cells (carrying MLL-AF4), method calls the value GI50
Excerpt: Experimental Example 2: Evaluation of Inhibitory Activity of Compounds Against Proliferation of Human Tumor Cells
• Human acute lymphoblastic leukemia cells MV-4-11, purchased from American Type Culture Collection, Catalog Number: CRL-9591; • Human acute myeloid leukemia cells MOLM-13, purchased from COBIOER BIOSCIENCES CO., LTD, Catalog Number: CBP60678; • Human acute myeloid leukemia cells KG-1a, purchased from American Type Culture Collection, Catalog Number: CCL-246.1; • Inverted Microscope, purchased from Olympus Tokyo; • Countess™ Automated Cell Counter, purchased from Invitrogen, Model: C10281; and • Multilabel Reader, purchased from Bio-Tek, Model: Synergy HT.
MV-4-11 cells were cultured in an IMDM medium containing 10% fetal bovine serum, KG-a cells were cultured in an IMDM medium containing 20% fetal bovine serum, or MOLM-13 cells were cultured in an RPMI-1640 medium containing 20% fetal bovine serum, each supplemented with 100 U·mL^-1 penicillin and 100 µg·mL^-1 streptomycin. These cells were cultured at 37°C with 5% CO2. The suspensions of individual cell lines were prepared in their respective media and seeded into 96-well plates at a density of 4,000 cells/well for MV-4-11 and MOLM-13 cells, or 3,000 cells/well for KG-1a cells. On the day of the experiment, a compound stock solution was diluted in a 3-fold or 4-fold gradient using DMSO. Each gradient-diluted stock solution was then further diluted 250-fold with a complete medium to prepare a series of working solutions at different concentrations. Subsequently, 100 µL of working solution (containing a 2-fold concentration series of the test compound) was added to each well, with duplicate wells set up for each concentration.
Seven days after compound addition (on Day 7), an Alamar Blue assay reagent (MCE, HY-111391 / CS-0040317) was added to measure the fluorescence intensity in each well. Wells containing the cells in the growth medium supplemented with 0.1% DMSO (Day 7) served as high-read control wells. The readouts from the wells containing the cells in the growth medium supplemented with 0.1% DMSO on the day of compound addition (Day 0) served as low-reading control well. GraphPad Prism software was used to calculate the concentration required to inhibit 50% of cell proliferation (GI50), which serves as a cell proliferation inhibition activity index.

[2] = test system: MOLM-13 (carrying MLL-AF9); test: Inhibition of proliferation of human tumor cells (Alamar Blue, 7 days), MOLM-13; format: cell-based; details: Homo sapiens, MOLM-13 cells (carrying MLL-AF9), method calls the value GI50
Procedure, shortened: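 Seven-day continuous compound exposure in duplicate wells, with 0.1% DMSO vehicle. Proliferation is quantified by Alamar Blue fluorescence and expressed as GI50, using Day 0 readings as the low reference.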

Menin-MLL = target: T1, Menin-MLL (Homo sapiens, UniProt O00255); test: Inhibitory activity against Menin-MLL binding (fluorescence polarization); details: 150 nM His-Menin, 15 nM FITC-MLL, 25°C for 60 min
T1 construct: His-Menin (M1-L615 end); purchased BIORTUS BP9210
T1 sequence (O00255 1-615 isoform O00255-1): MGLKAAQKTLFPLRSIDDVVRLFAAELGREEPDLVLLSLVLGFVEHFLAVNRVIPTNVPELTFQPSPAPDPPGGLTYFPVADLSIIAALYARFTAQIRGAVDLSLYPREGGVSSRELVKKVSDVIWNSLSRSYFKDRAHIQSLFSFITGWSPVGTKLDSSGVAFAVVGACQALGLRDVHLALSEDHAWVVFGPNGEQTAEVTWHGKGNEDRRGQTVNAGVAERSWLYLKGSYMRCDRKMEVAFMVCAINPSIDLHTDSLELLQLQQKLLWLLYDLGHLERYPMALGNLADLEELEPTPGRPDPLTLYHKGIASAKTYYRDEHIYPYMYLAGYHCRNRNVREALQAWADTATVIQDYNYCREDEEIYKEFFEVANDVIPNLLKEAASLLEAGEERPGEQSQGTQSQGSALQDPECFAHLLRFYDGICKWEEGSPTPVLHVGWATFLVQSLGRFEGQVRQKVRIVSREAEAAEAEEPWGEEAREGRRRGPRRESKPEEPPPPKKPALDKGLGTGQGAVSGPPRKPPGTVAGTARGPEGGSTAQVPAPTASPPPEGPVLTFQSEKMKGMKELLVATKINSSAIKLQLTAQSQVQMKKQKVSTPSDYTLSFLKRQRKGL
Procedure, shortened: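 His-Menin (M1-L615, 150 nM) preincubated with compound 15 min at 25 °C in HEPES pH 7.5, 50 mM NaCl, 1 mM DTT, 0.01% BSA, then 15 nM FITC-MLL4-43 peptide added for 60 min at 25 °C. Fluorescence polarization read; IC50 from 4-parameter logistic fit, duplicates.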

[3] = fluorescence polarization, read-out: Menin-MLL IC50
[4] = Menin-MLL IC50, fluorescence polarization

Row | Structure (SMILES) | IC50 [1] | IC50 ([2]; 168 h) | IC50 (Menin-MLL; [3]) | IC50 ([2]; MOLM-13, 168 h) | IC50 (Menin-MLL; [4])
1 | CNCCCC(C(C)C)N1CC(c2cc(-c3ccc(F)cc3C(=O)N(CC(F)F)C(C)C)c3c(F)nc(C)n3c2)C1 (stereo not drawn) [Example 141, N-(2,2-difluoroethyl)-5-fluoro-2-(1-fluoro-3-methyl-6-{1-[2-methyl-6-(methylamino)hexan-3-yl]azacyclobutan-3-yl}imidazo[1,5-a]pyridin-8-yl)-N-(isopropyl)benzamide] | 1.1 nM | 5.4 nM | 5.5 nM |  | 
2 | CNCCCC(C(C)C)N1CC(c2cc(-c3ccc(F)cc3C(=O)N(CC(F)F)C(C)C)c3cnc(C)n3c2)C1 (stereo not drawn) [Example 148] | 0.95 nM | 3.6 nM | 9 nM |  | 
3 | CCS(=O)(=O)N[C@@H]1CC[C@@H](CN2CC(c3cc(-c4ccc(F)cc4C(=O)N(CC(F)F)C(C)C)c4cnc(C)n4c3)C2)OC1 [Example 150, N-(2,2-difluoroethyl)-2-[6-(1-{[(2S,5R)-5-ethanesulfonamidooxacyclohexan-2-yl]methyl}azacyclobutan-3-yl)-3-methylimidazo[1,5-a]pyridin-8-yl]-5-fluoro-N-(isopropyl)benzamide] | 21 nM | 36 nM | 24.5 nM |  | 
4 | CCS(=O)(=O)N[C@@H]1CC[C@@H](CN2CC(c3cc(-c4ccc(F)cc4C(=O)N(CC(F)F)C(C)C)c4c(F)nc(C)n4c3)C2)OC1 [Example 151] | 40 nM | 61 nM | 15.5 nM |  | 
5 | CCS(=O)(=O)N[C@H]1CC[C@H](CN2CC[C@@H](c3cc(-c4ccc(F)cc4C(=O)N(CC(F)F)C(C)C)c4cnc(C)n4c3)C2)CC1 [Example 164, N-(2,2-difluoroethyl)-5-fluoro-2-{3-methyl-6-[(3S)-1-{[(1r,4r)-4-ethanesulfonamidocyclohexyl]methyl}pyrrolidin-3-yl]imidazo[1,5-a]pyridin-8-yl]-N-(isopropyl)benzamide] | 2.2 nM |  |  | 6.1 nM | 6 nM
6 | COC1CCN(CCC[C@H](C(C)C)N2CC(c3cc(-c4ccc(F)cc4C(=O)N4CCOC[C@H]4C)c4cnn(C)c4c3)C2)CC1 [Example 181-2, 4-{4-fluoro-2-[(3R)-3-methylmorpholin-4-carbonyl]phenyl}-6-{1-[(3R)-6-(4-methoxypiperidin-1-yl)-2-methylhexan-3-yl]azacyclobutan-3-yl}-1-methyl-1H-indazole] | 7.9 nM | 39 nM | 13.5 nM |  | 
7 | CO[C@H]1CCN(CCC[C@H](C(C)C)N2CC(c3cc(-c4ccc(F)cc4C(=O)N4CCOC[C@H]4C)c4cnn(C)c4c3)C2)C1 [Example 184-2] | 6.3 nM | 34 nM | 13 nM |  | 
8 | CCS(=O)(=O)N[C@H]1CC[C@H](CN2CC(c3cc(-c4ccc(F)cc4C(=O)N4CCC[C@H]4C)c4c(F)nc(C)n4c3)C2)CC1 [Example 187, N-[(1r,4r)-4-{[3-(1-fluoro-8-{4-fluoro-2-[(2R)-2-methylpyrrolidin-1-carbonyl]phenyl}-3-methylimidazo[1,5-a]pyridin-6-yl)azacyclobutan-1-yl]methyl}cyclohexyl]ethan-1-sulfonamide] | 15 nM |  |  | 36 nM | 16.5 nM
9 | Cc1ncc2c(-c3ccc(F)cc3C(=O)N3CCC[C@H]3C)cc(C3CN(C(C)C4CCOCC4)C3)cn12 (stereo partly drawn) [Example 190] | 25 nM | 40 nM | 29.5 nM |  | 
10 | COCCN(C)C1CC(C(C(C)C)N2CC(c3cc(-c4ccc(F)cc4C(=O)N4CCOC[C@H]4C)c4cnn(C)c4c3)C2)C1 (stereo partly drawn) [Example 195, 3-{1-[3-(4-{4-fluoro-2-[(3R)-3-methylmorpholin-4-carbonyl]phenyl}-1-methyl-1H-indazol-6-yl)azacyclobutan-1-yl]-2-methylpropyl}-N-(2-methoxyethyl)-N-methylcyclobutan-1-amine] | 13 nM | 35 nM | 41 nM |  | 
